Measurements published in patent US10228380B2, “Methods for targeting membrane steroid transporters” (priority 2018, dated 2019).

Experiments:
[1] = target: T1, EcR (Drosophila melanogaster, UniProt P34021); test: luciferase reporter assay in S2 culture cells with or without EcI RNAi; type: cell-based, D. melanogaster; details: for effect of EcI RNAi treatment on the cells' response as measured by the luciferase assay: S2 culture cells, varying concentrations, 24 hours, EcI RNAi vs control cells without RNAi
T1 construct: endogenous in cells; host or cells: Drosophila S2 culture cells
T1 sequence (P34021 1-878): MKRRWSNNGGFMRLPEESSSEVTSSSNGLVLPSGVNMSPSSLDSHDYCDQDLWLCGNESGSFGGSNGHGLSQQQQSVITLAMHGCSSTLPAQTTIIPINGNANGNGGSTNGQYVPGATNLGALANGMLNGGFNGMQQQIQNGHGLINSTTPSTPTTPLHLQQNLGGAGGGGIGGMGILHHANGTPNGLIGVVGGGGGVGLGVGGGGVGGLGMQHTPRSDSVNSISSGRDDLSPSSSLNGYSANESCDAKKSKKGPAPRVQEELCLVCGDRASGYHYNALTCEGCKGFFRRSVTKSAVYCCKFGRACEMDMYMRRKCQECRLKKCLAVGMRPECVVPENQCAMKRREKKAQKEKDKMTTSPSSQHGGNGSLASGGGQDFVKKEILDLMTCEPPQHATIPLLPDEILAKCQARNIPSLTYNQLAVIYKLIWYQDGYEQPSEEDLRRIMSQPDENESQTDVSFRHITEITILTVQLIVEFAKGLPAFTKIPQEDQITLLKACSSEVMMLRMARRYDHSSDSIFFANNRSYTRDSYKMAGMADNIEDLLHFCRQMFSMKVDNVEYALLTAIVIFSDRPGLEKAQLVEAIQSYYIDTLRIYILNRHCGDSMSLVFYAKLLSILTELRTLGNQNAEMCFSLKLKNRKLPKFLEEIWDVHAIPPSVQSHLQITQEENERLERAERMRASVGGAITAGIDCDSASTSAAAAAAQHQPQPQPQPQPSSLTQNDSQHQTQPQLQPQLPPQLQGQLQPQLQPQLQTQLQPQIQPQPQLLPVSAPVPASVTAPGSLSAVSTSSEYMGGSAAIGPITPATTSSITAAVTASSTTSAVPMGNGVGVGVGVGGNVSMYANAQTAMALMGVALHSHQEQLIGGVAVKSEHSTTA
T1 sequence (P20153 1-508 partner): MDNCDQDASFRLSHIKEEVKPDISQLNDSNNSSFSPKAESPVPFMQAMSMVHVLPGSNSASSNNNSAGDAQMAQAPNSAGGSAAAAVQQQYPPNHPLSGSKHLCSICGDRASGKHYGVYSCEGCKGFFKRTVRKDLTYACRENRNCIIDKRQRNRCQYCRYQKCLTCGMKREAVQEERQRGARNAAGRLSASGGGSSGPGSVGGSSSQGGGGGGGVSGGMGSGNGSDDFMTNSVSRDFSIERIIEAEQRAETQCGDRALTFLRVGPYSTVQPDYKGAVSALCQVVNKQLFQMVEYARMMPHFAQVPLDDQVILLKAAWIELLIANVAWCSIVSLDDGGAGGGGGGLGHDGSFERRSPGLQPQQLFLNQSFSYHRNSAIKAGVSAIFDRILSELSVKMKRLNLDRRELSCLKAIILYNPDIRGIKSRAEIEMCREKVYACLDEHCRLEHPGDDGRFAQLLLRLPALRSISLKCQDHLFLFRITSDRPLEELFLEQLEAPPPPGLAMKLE
Experimental: FIG. 3 is a graph of the fold change of D. melanogaster EcR response after incubation of S2 culture cells for 24 hours in varying concentrations of 20E (left graph) or chromafenozide (CF; middle graph), as measured by luciferase reporter assay. The right graph is a time-course analysis of EcR-mediated luciferase activity in S2 culture cells treated with 10^−7M of 20E. In each graph, the control data is the solid top line, and the dashed bottom line is data of cells treated with EcI RNAi. Each point represents mean±SD; * indicates p<0.05 from Student's t-test compared to control; ** indicates p<0.01 from Student's t-test compared to control.
FIG. 5A depicts a schematic of a luciferase reporter assay in a cell derived from an arthropod cell line, for determining transport of 20E by the membrane steroid hormone transporter encoded by ecdysone importer (EcI).
As described above, in some embodiments, the transcriptional activity of a steroid hormone nuclear receptor is used to evaluate the transport of a steroid hormone across the cell membrane of an initial cell, or a comparative cell. In some variations, the luciferase reporter assay is used to measure the transcriptional activity of the steroid hormone nuclear receptor. For example, with reference to FIG. 5A and FIG. 5B, depicted are schemes showing the use of a luciferase reporter assay in an S2 cell (FIG. 5A) or in a HEK cell (FIG. 5B) to evaluate the transcriptional activity of the nuclear receptor encoded by the gene ecdysone receptor (EcR).
S2 culture cells treated with EcI RNAi were incubated with varying concentrations of 20E or with chromafenozide (CF) for 24 hours, and their response was monitored using a luciferase reporter assay. The relative response of the treated cells was compared to control cells, which were incubated with 20E or CF but not treated with RNAi. […] CF is a non-steroidal EcR agonist, and is expected to enter the cells through an unknown transporter distinct from EcI.

[2] = target: T2, EcI and EcR (Drosophila melanogaster, UniProt P34021); test: luciferase reporter assay in HEK culture cells transfected with EcR or with EcI and EcR; type: cell-based, D. melanogaster; details: varying concentrations, 24 hours
T2 construct: expressed in transfected cells; host or cells: human HEK cells
T2 sequence (P34021 1-878): T1 sequence (P34021 1-878)
Experimental: FIG. 4 is a relative luciferase reporter activity in HEK culture cells treated for 24 h with 20E. Response of the cells transfected with EcR is the solid bottom line; cells transfected with EcR and EcI is the dashed top line. Each point represents mean±SEM; ** indicates p<0.01 from Student's t-test compared to control.
FIG. 5B depicts a schematic of a luciferase reporter assay in a cell derived from a mammalian cell line, for determining transport of 20E by the membrane steroid hormone transporter encoded by ecdysone importer (EcI).
As described above, in some embodiments, the transcriptional activity of a steroid hormone nuclear receptor is used to evaluate the transport of a steroid hormone across the cell membrane of an initial cell, or a comparative cell. In some variations, the luciferase reporter assay is used to measure the transcriptional activity of the steroid hormone nuclear receptor. […]
Human HEK cells were transfected with EcI and EcR, and their response to incubation with varying concentrations of 20E for 24 hours was evaluated using the luciferase reporter assay. Control HEK cells that were transfected only with EcR were also evaluated.

response as measured by luciferase assay ([2]; control human HEK cells transfected only with EcR)	response as measured by luciferase assay ([2]; human HEK cells transfected with both EcI and EcR)	effect of EcI RNAi treatment on the cells' response over time (time-course of luciferase activity) ([1]; S2 cells treated with 10^−7 M, with or without RNAi)	Structure (SMILES)	effect of EcI RNAi treatment on the cells' response as measured by the luciferase assay [1]
–	–	–	Cc1cc(C)cc(C(=O)N(NC(=O)c2ccc3c(c2C)CCCO3)C(C)(C)C)c1 [CF, chromafenozide]	less effect
not responsive	responsive	significantly decreased	CC(C)(O)CC[C@@H](O)[C@](C)(O)[C@H]1CC[C@@]2(O)C3=CC(=O)[C@@H]4C[C@@H](O)[C@@H](O)C[C@]4(C)[C@H]3CC[C@]12C [20E, 20-hydroxyecdysone]	significantly decreased
